Like-named read-outs stand apart in the source and are kept apart here.
Key:
[1] = Measurement of log P values by HPLC on reversed phase columns (EEC directive 79/831 Annex V.A8); type: physicochemical; details: for logP: Table 1 active ingredients
Alternaria brassicae = assay: In vivo preventive test on Alternaria brassicae (leaf spot on radish); details: preventive spray on radish plants, grading 6 days after contamination vs control plants
Description: Radish plants (“Pernod Clair” variety), sown in starter cups on a 50/50 peat soil-pozzolana substrate and grown at 17° C., are treated at the cotyledon stage by spraying with the active ingredient prepared as described above. Plants, used as controls, are treated with the mixture of acetone/tween/DMSO/water not containing the active material. After 24 hours, the plants are contaminated by spraying the cotyledons with an aqueous suspension of Alternaria brassicae spores (50 000 spores per ml). The spores are collected from a 15-day-old culture. The contaminated radish plants are incubated at 20° C. and at 100% relative humidity. Grading (% of efficacy) is carried out 6 days after the contamination, in comparison with the control plants.

Puccinia recondita = assay: In vivo preventive test on Puccinia recondita (brown rust on wheat); details: preventive spray on wheat plants, grading 12 days after contamination vs control plants
Description: Wheat plants (“Scipion” variety), sown in starter cups on a 50/50 peat soil-pozzolana substrate and grown at 22° C., are treated at the 1-leaf stage (10 cm height) by spraying with the active ingredient prepared as described above. Plants, used as controls, are treated with the mixture of acetone/tween/DMSO/water not containing the active material. After 24 hours, the plants are contaminated by spraying the leaves with an aqueous suspension of Puccinia recondita spores (100 000 spores per ml). […] The contaminated wheat plants are incubated for 24 hours at 20° C. and at 100% relative humidity, and then for 10 days at 20° C. and at 70-80% relative humidity. Grading (% of efficacy) is carried out 12 days after the contamination, in comparison with the control plants.

Uromyces appendiculatus = assay: In vivo preventive test on Uromyces appendiculatus (bean rust); details: preventive spray on bean plants, grading 11 days after contamination vs control plants
Description: Bean plants (“Saxa” variety), sown in starter cups on a 50/50 peat soil-pozzolana substrate and grown at 24° C., are treated at the 2-leaf stage (9 cm height) by spraying with the active ingredient prepared as described above. Plants, used as controls, are treated with the mixture of acetone/tween/DMSO/water not containing the active material. After 24 hours, the plants are contaminated by spraying the leaves with an aqueous suspension of Uromyces appendiculatus spores (150 000 spores per ml). […] The contaminated bean plants are incubated for 24 hours at 20° C. and at 100% relative humidity, and then for 10 days at 20° C. and at 70-80% relative humidity. Grading (% of efficacy) is carried out 11 days after the contamination, in comparison with the control plants.

Pyrenophora teres = assay: In vivo preventive test on Pyrenophora teres (net blotch on barley); details: preventive spray on barley plants, grading 14 days after contamination vs control plants
Description: Barley plants (“Plaisant” variety), sown in starter cups on a 50/50 peat soil-pozzolana substrate and grown at 22° C., are treated at the 1-leaf stage (10 cm height) by spraying with the active ingredient prepared as described above. Plants, used as controls, are treated with the mixture of acetone/tween/DMSO/water not containing the active material. After 24 hours, the plants are contaminated by spraying the leaves with an aqueous suspension of Pyrenophora teres spores (12 000 spores per ml). The spores are collected from a 12-day-old culture. The contaminated barley plants are incubated for 48 hours at 20° C. and at 100% relative humidity, and then for 12 days at 20° C. at 70-80% relative humidity. Grading (% of efficacy) is carried out 14 days after the contamination, in comparison with the control plants.

Botrytis cinerea = assay: In vivo preventive test on Botrytis cinerea (grey mould); details: preventive spray on gherkin plants, grading 4 to 5 days after contamination vs control plants
Description: Gherkin plants (“Vert petit de Paris” variety), sown in starter cups on a 50/50 peat soil-pozzolana substrate and grown at 24° C., are treated at the Z11 cotyledon stage by spraying with the active ingredient prepared as described above. Plants, used as controls, are treated with the mixture of acetone/tween/DMSO/water not containing the active material. After 24 hours, the plants are contaminated by spraying the cotyledons with an aqueous suspension of cryopreserved Botrytis cinerea spores (50 000 spores per ml). The spores are suspended in a nutrient solution composed of 10 g/L of PDB, 50 g/L of D-Fructose, 2 g/L of NH4NO3 and 1 g/L of KH2PO4. The contaminated gherkin plants are incubated at 17° C. and at 90% relative humidity. Grading (% of efficacy) is carried out 4 to 5 days after the contamination, in comparison with the control plants.

Sphaerotheca fuliginea = assay: In vivo preventive test on Sphaerotheca fuliginea (powdery mildew on cucurbits); details: preventive spray on gherkin plants, grading 12 days after contamination vs control plants
Description: Gherkin plants (“Vert petit de Paris” variety), sown in starter cups on a 50/50 peat soil-pozzolana substrate and grown at 24° C., are treated at the Z11 cotyledon stage by spraying with the active ingredient prepared as described above. Plants, used as controls, are treated with the mixture of acetone/tween/DMSO/water not containing the active material. After 24 hours, the plants are contaminated by spraying the cotyledons with an aqueous suspension of Sphaerotheca fuliginea spores (100 000 spores per ml). The spores are collected from infected plants. The contaminated gherkin plants are incubated at about 20° C. and at 70-80% relative humidity. Grading (% of efficacy) is carried out 12 days after the contamination, in comparison with the control plants.

Septoria tritici = assay: In vivo preventive test on Septoria tritici (leaf spot on wheat); details: dose of 500 ppm; preventive spray on wheat plants; grading 24 days after contamination vs control plants
Description: Wheat plants (“Scipion” variety), sown in starter cups on a 50/50 peat soil-pozzolana substrate and grown at 22° C., are treated at the 1-leaf stage (10 cm height) by spraying with the active ingredient prepared as described above. Plants, used as controls, are treated with the mixture of acetone/tween/DMSO/water not containing the active material. After 24 hours, the plants are contaminated by spraying the leaves with an aqueous suspension of cryopreserved Septoria tritici spores (500 000 spores per ml). The contaminated wheat plants are incubated for 72 hours at 18° C. and at 100% relative humidity, and then for 21 days at 90% relative humidity. Grading (% of efficacy) is carried out 24 days after the contamination, in comparison with the control plants.

[2] = method [a]: LC-MS at pH 2.7, 0.1% formic acid in water / acetonitrile, linear gradient 10% to 95% acetonitrile
[3] = reversed phase HPLC column, method [a]: LC-MS at pH 2.7, 0.1% formic acid in water / acetonitrile, linear gradient 10% to 95% acetonitrile, Table 2 intermediates of formula (III-a), read-out: logP

Row | SMILES | logP [1, 2] | Eff. % (Alternaria brassicae; dose of 500 ppm) | Eff. % (Puccinia recondita; dose of 500 ppm) | Eff. % (Uromyces appendiculatus; dose of 500 ppm) | other results
1 | CC1CCc2c(NC(=O)c3c(C(F)F)nn(C)c3Cl)cccc2C1C (centres unmarked) [Example 7] | 4.09[a] | 97% | 100% | 100% | –
2 | CCON=C1CCCc2c(NC(=O)c3c(C(F)F)nn(C)c3F)cccc21 [Example 18] | 3.31[a] | 83% | – | 81% | Eff. % (Pyrenophora teres; dose of 500 ppm): 92%
3 | CC1(C)CCCc2c(N)cccc21 [III-a-1, 5,5-dimethyl-5,6,7,8-tetrahydronaphthalen-1-amine] | – | – | – | – | chromatographic logP [1, 3]: 1.69
4 | CC1CCC(C)(C)c2cccc(NC(=O)c3c(C(F)F)nn(C)c3F)c21 (racemic) [Example 3] | 3.92[a] | 93% | 94% | 100% | Eff. % (Botrytis cinerea; dose of 500 ppm): 100%
5 | C=C1c2cccc(NC(=O)c3c(C(F)F)nn(C)c3Cl)c2CCC1(C)C [Example 5] | 4.14[a] | – | 94% | 100% | Eff. % (Botrytis cinerea; dose of 500 ppm): 93%
6 | CCON=C1CCCc2c(NC(=O)c3c(C(F)F)nn(C)c3Br)cccc21 [Example 20] | 3.57[a] | – | – | – | –
7 | Cn1nc(C(F)F)c(C(=O)Nc2ccc(F)c3c2CCCC3(C)C)c1Cl [Example 16] | 4.01[a] | – | 97% | 100% | –
8 | Cn1nc(C(F)F)c(C(=O)Nc2cccc3c2CCC(C)(C)C3)c1Br [Example 23] | 4.04[a] | – | 79% | 96% | –
9 | Cn1nc(C(F)F)c(C(=S)Nc2cccc3c2CCC(C)(C)C3)c1Cl [Example 33, 5-chloro-3-(difluoromethyl)-N-(6,6-dimethyl-5,6,7,8-tetrahydronaphthalen-1-yl)-1-methyl-1H-pyrazole-4-carbothioamide] | – | – | – | – | chromatographic logP ([1]; pH 2.7): 4.11; Eff. % (Alternaria brassicae; dose of 100 ppm): 75%; Eff. % (Puccinia recondita; dose of 100 ppm): 94%; Eff. % (Uromyces appendiculatus; dose of 100 ppm): 99%
10 | CC1c2cccc(NC(=O)c3c(C(F)F)nn(C)c3Cl)c2CCC1(C)C (racemic) [Example 11] | 4.39[a] | – | 98% | 100% | –
11 | Cn1nc(C(F)F)c(C(=O)Nc2cccc3c2C(C)(C)CCC3)c1F [Example 29] | 3.44[a] | – | – | – | –
12 | CC1CCc2c(NC(=O)c3c(C(F)F)nn(C)c3F)cccc2C1C (centres unmarked) [Example 8] | 3.83[a] | 97% | 100% | 99% | Eff. % (Pyrenophora teres; dose of 500 ppm): 71%; Eff. % (Sphaerotheca fuliginea; dose of 500 ppm): 85%
13 | CC1CCc2c(NC(=O)c3c(C(F)F)nn(C)c3Cl)cccc2C1(C)C (racemic) [Example 15] | 4.29[a] | – | 98% | 95% | Eff. % (Septoria tritici): 75%; Eff. % (Sphaerotheca fuliginea; dose of 500 ppm): 70%
14 | Cn1nc(C(F)F)c(C(=S)Nc2cccc3c2CCC(C)(C)C3)c1F [Example 32] | 3.99[a] | – | – | – | Eff. % (Alternaria brassicae; dose of 100 ppm): 75%; Eff. % (Botrytis cinerea; dose of 100 ppm): 73%; Eff. % (Pyrenophora teres; dose of 100 ppm): 83%; Eff. % (Puccinia recondita; dose of 100 ppm): 94%; Eff. % (Sphaerotheca fuliginea; dose of 100 ppm): 98%; Eff. % (Uromyces appendiculatus; dose of 100 ppm): 97%
15 | Cn1nc(C(F)F)c(C(=S)Nc2cccc3c2CCC(C)(C)C3)c1Br [Example 31] | 4.11[a] | – | – | – | –
16 | Cn1nc(C(F)F)c(C(=O)Nc2cccc3c2CC(C)(C)CC3)c1Cl [Example 14] | 3.9[a] | 71% | 100% | 99% | Eff. % (Pyrenophora teres; dose of 500 ppm): 97%; Eff. % (Septoria tritici): 90%; Eff. % (Sphaerotheca fuliginea; dose of 500 ppm): 98%
17 | Cn1nc(C(F)F)c(C(=O)Nc2cccc3c2CC(C)(C)CC3)c1F [Example 13] | 3.72[a] | – | 97% | 100% | Eff. % (Pyrenophora teres; dose of 500 ppm): 75%; Eff. % (Septoria tritici): 95%; Eff. % (Sphaerotheca fuliginea; dose of 500 ppm): 98%
18 | Cn1nc(C(F)F)c(C(=O)Nc2cccc3c2C(C)(C)CCC3)c1Cl [Example 27] | 3.69[a] | – | – | – | –
19 | CC1(C)CCc2c(N)cccc2C1 [III-a-12, 6,6-dimethyl-5,6,7,8-tetrahydronaphthalen-1-amine] | – | – | – | – | chromatographic logP [1, 3]: 1.86
20 | CON=C1CCCc2c(NC(=O)c3c(C(F)F)nn(C)c3Cl)cccc21 [Example 28] | 3.09[a] | – | – | – | –
21 | CCON=C1CCCc2c(NC(=O)c3c(C(F)F)nn(C)c3Cl)cccc21 [Example 21] | 3.55[a] | – | 94% | – | Eff. % (Pyrenophora teres; dose of 500 ppm): 75%
22 | Cn1nc(C(F)F)c(C(=S)Nc2ccc(F)c3c2CCCC3(C)C)c1Cl [Example 17] | 4.24[a] | – | 100% | 100% | –
23 | CON=C1CCCc2c(NC(=O)c3c(C(F)F)nn(C)c3Br)cccc21 [Example 26] | 3.13[a] | – | – | – | –
24 | CC1CCC(C)(C)c2cccc(NC(=O)c3c(C(F)F)nn(C)c3Cl)c21 (racemic) [Example 4] | 4.14[a] | 92% | 94% | 99% | –
25 | CON=C1CCCc2c(NC(=O)c3c(C(F)F)nn(C)c3F)cccc21 [Example 19] | 2.86[a] | 96% | – | – | Eff. % (Botrytis cinerea; dose of 500 ppm): 96%
26 | Cn1nc(C(F)F)c(C(=O)Nc2ccc(F)c3c2CCCC3(C)C)c1F [Example 24] | 3.76[a] | 75% | 97% | 100% | –

— patent US9204646B2, “Pyrazole tetrahydronaphthyl carboxamides” (BAYER CROPSCIENCE AG, priority 2012, dated 2015)
